Assay results published in paper PMC6378053, “Flavonol 7-O-Glucoside Herbacitrin Inhibits HIV-1 Replication through Simultaneous Integrase and Reverse Transcriptase Inhibition” (Evidence-based Complementary and Alternative Medicine : eCAM, 2019).

Experiments:
[1] = MTT cytotoxicity assay on MT-4 cells; settings: human
Method: (§1) The permanent human T-cell lines MT-4 and MT-2 were maintained at 37°C in a humidified atmosphere containing 5% CO2 in RPMI 1640 (Sigma-Aldrich) medium supplemented with 10% heat-inactivated fetal bovine serum (Sigma-Aldrich), 100 IU/ml penicillin and 100 μg/ml streptomycin (Sigma-Aldrich). HIV-1 (HTLV-IIIB) was obtained from the culture supernatant of MT-4/HTLV-IIIB cells. The 50% HIV-1 tissue culture infectious dose (TCID50) on MT-4 cells was determined by virus yield assay.
(§2) To determine the in vitro cytotoxic effect of the compounds, viability of the treated and untreated cells was measured by a colorimetric assay as described earlier. Briefly, MT-4 and MT-2 cells were seeded into a 96-well plate at a density of 15,000 cells/well in the presence of different concentrations of the compounds dissolved in dimethyl sulfoxide (DMSO). […] After 4 days of incubation, cell cultures were analyzed using MTT cell viability assay (Sigma-Aldrich) to monitor the reduction of 3-(4,5-dimethylthiazol-2-yl)-2,5-diphenyl-tetrazolium bromide (MTT) to a blue formazan product by metabolically active cells. To initiate the cell viability assay, 20 μl MTT (5 mg/mL dissolved in PBS) was added to each well. After 4 h incubation cell supernatant was removed and 100 μl DMSO per well was added. The absorbance was measured at 550 nm on a microplate reader after mixing the contents thoroughly. The cytotoxicity tests were implemented in two biological replicates.

[2] = MTT cytotoxicity assay on MT-2 cells; settings: human
Method: as §1, §2

HIV-1 (HTLV-IIIB) = test: Cell-based antiviral assay, HIV-1 p24 core protein ELISA in supernatants of infected MT-4 and MT-2 cells; settings: nontoxic concentrations (2.1 μM), 5 days of incubation
Method: MT-4 and MT-2 cells at a density of 15,000 cells/well were incubated in 96-well plates in the presence of compounds at 37°C in 5% CO2 for 5 days. Simultaneously, cells were exposed to HIV-1 (2,32∗10^2 TCID50/ml). Untreated and infected or AZT (3′-azido-3′-deoxythymidine)-treated cells were used as controls. After the incubation period, diluted culture supernatants were analyzed for HIV production by determining the amount of viral core protein using a p24 enzyme-linked immunosorbent assay (ELISA) kit (Fujirebio) according to manufacturer's instructions. The results were expressed relative to the control of untreated HIV-1 infected cells. The experiment was performed in four biological replicates. Statistical analysis was performed by one-way ANOVA followed by Bonferroni's post hoc test.

[3] = target: T1, recombinant HIV-1 reverse transcriptase (RT) (Human immunodeficiency virus type 1 group M subtype B, UniProt P04585); test: HIV-1 reverse transcriptase inhibition, colorimetric RT kit; type: biochemical; settings: 21.5 μM concentration
T1 construct: activity of recombinant HIV-1 reverse transcriptase (RT) and integrase (IN); purchased Roche Diagnostics
Method: (§3) Inhibitory effects of compounds on the HIV-1 reverse transcriptase and integrase activity were measured by a colorimetric RT kit (Roche Diagnostics) and IN assay kit (Express Biotech International) according to the instructions of the manufacturer. Reverse transcriptase assay measures the amount of labeled nucleotides incorporated during the transcription process of RNA. Nevirapine, a nonnucleoside RT inhibitor, was used as a positive control in the RT reaction. HIV-1 integrase assay measures the integrase activity after 3′-end processing of the HIV-1 LTR donor substrate DNA and catalyzing the strand-transfer recombination reaction to integrate the donor substrate DNA into the target substrate DNA. Sodium azide was applied as a positive control compound in the experiments measuring the integrase activity. The RT and IN inhibition assays were performed in two biological replicates. Statistical analysis was performed by one-way ANOVA followed by Bonferroni's post hoc test, and a planned comparison by unpaired T-test was also performed (see Figure 3(b)).

[4] = target: T2, recombinant HIV-1 integrase (IN) (Human immunodeficiency virus type 1 group M subtype B, UniProt P04585); test: HIV-1 integrase inhibition, IN assay kit; type: biochemical; settings: 2.15 μM concentration
T2 construct: activity of recombinant HIV-1 reverse transcriptase (RT) and integrase (IN); purchased Express Biotech International
Method: as §3

HIV-1 [5] = system: HIV-1; design: method as in PMID 25546350; settings: C8166 cells; cited from earlier work
HIV-1 [6] = system: HIV-1; design: method as in PMID 25546350; settings: C8166 cells; cited from earlier work; remark: listed apart in the source
HIV-1 BaL, HIV-1 MN = system: HIV-1 BaL, HIV-1 MN; design: method as in PMID 25546350; settings: TZM-bl cell plus HIV-1 BaL and H9, and PBMC plus HIV-1 MN; read-out: IC50 antiviral effect; cited from earlier work
HIV [7] = system: HIV; design: method as in doi:10.3844/ajidsp.2009.135.141; settings: normal peripheral blood mononuclear cells (PBMC); cited from earlier work
[8] = system: IN (strand transfer reaction); design: method as in PMID 12213478; settings: in vitro; cited from earlier work
HIV [9] = system: HIV; design: method as in PMID 12213478; settings: MT-2 cells; read-out: IC50 HIV infection of MT-2 cells; cited from earlier work
MT-2 cells = settings: at concentrations as high as 800 μM; cited from earlier work
IN = settings: cited from earlier work

SMILES: O=c1c(O)c(-c2ccc(O)c(O)c2)oc2c(O)c(OC3OC(CO)C(O)C(O)C3O)cc(O)c12 (stereo not drawn) [Gossypitrin (2), gossypitrin]
- CC50 at 4 days ([1]; MT-4 cells): 101 µM
- CC50 at 4 days ([2]; MT-2 cells): 113 µM
- Effect on HIV-1 replication (p24 core protein levels) (HIV-1 (HTLV-IIIB)): ineffective

SMILES: O=c1c(O)c(-c2ccc(O)cc2)oc2c(O)c(OC3OC(CO)C(O)C(O)C3O)cc(O)c12 (stereo not drawn) [Herbacitrin (1), herbacitrin]
- CC50 at 4 days ([1]; MT-4 cells): 27.8 µM
- CC50 at 4 days ([2]; MT-2 cells): 63.6 µM
- Effect on HIV-1 replication (p24 core protein levels) (HIV-1 (HTLV-IIIB)): reduced HIV-1 replication
- Inhibition of HIV-1 reverse transcriptase activity ([3]; listed as Herbacitrin): inhibit
- Inhibition of HIV-1 reverse transcriptase activity ([3]; listed as herbacitrin): significantly inhibited
- Inhibition of HIV-1 integrase activity ([4]; listed as Herbacitrin): active
- Inhibition of HIV-1 integrase activity ([4]; listed as herbacitrin): inhibited

SMILES: O=c1c(O)c(-c2ccc(O)c(O)c2)oc2cc(O)cc(O)c12 [Quercetin (3), quercetin]
- CC50 at 4 days [1]: 108 µM
- CC50 at 4 days [2]: 157 µM
- Effect on HIV-1 replication (p24 core protein levels) (HIV-1 (HTLV-IIIB)): reduced HIV-1 replication
- EC50 inhibition of syncytium formation (HIV-1 [5]): 42.55 µg/mL
- EC50 protection of HIV-1 induced cytopathic effects (HIV-1 [6]): 23.2 µg/mL
- IC50 (HIV-1 BaL, HIV-1 MN): 29.8 to 89 µM
- Anti-HIV activity (HIV replication, virus infectivity) (HIV [7]): significant anti-HIV activity

SMILES: O=c1cc(-c2ccc(O)c(O)c2)oc2cc(O[C@@H]3O[C@H](CO)[C@@H](O)[C@H](O)[C@H]3OS(=O)(=O)O)cc(O)c12 [Thalassiolin A]
- Inhibitory concentration against the strand transfer reaction [8]: submicromolar
- IC50 (HIV [9]): ~30 µM
- Cytotoxicity (MT-2 cells): no cytotoxicity

SMILES: O=c1c(O)c(-c2ccc(O)c(O)c2)oc2cc(O)c(O)c(O)c12 [quercetagetin, quercetagetin (6-hydroxyquercetin)]
- Inhibition of viral cleavage and integration (IN): strong inhibitor
